# According to ChEMBL document CHEMBL1139756, “Synthesis and structure-activity relationship of novel indene N-oxide derivatives as potent peroxisome proliferator activated receptor gamma (PPARgamma) agonists” (Bioorg Med Chem Lett, 2007):
# Biological target: T1, Peroxisome proliferator-activated receptor gamma (Homo sapiens, UniProt P37231)
# T1 sequence (P37231 whole entry): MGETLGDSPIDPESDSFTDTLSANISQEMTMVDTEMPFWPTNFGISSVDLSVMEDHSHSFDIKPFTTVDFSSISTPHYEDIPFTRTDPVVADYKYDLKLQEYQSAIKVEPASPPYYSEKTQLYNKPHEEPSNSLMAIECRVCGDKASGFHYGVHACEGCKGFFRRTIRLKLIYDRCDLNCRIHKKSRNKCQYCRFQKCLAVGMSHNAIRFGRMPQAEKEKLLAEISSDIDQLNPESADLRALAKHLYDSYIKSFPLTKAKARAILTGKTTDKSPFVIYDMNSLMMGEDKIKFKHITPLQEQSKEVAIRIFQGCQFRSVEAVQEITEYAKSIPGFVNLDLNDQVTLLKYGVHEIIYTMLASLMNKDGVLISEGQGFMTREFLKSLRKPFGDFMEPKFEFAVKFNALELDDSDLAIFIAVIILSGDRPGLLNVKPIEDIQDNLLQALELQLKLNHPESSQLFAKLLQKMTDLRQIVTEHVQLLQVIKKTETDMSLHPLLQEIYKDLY
# Description: Agonist activity at human PPARgamma expressed in NIH3T3 cells by GAL4 transactivation assay
row,Compound,EC50 [nM]
1,CCOC(=O)C1=C(c2ccsc2)c2ccc(OCCCc3ccccc3)cc2/C1=[N+](/C)[O-],190
2,C/[N+]([O-])=C1\C(C(=O)NC2CC2)=C(c2ccccc2)c2ccc(OCCN3CCOCC3)cc21,20
3,C/[N+]([O-])=C1\C=C(c2ccccc2)c2ccc(OCCN3CCOCC3)cc21,150
4,CCOC(=O)C1=C(c2ccccc2)c2ccc(OCCC34CC5CC(CC(C5)C3)C4)cc2/C1=[N+](/C)[O-],840
5,CCOC(=O)C1=C(c2ccccc2)c2ccc(OCc3ccccn3)cc2/C1=[N+](/C)[O-],90
6,CCOC(=O)C1=C(c2ccc(C)cc2)c2ccc(OCCCc3ccccc3)cc2/C1=[N+](/C)[O-],660
7,CCOC(=O)C1=C(c2ccc3c(c2)OCO3)c2ccc(OCCCc3ccccc3)cc2/C1=[N+](/C)[O-],250
8,CCOC(=O)C1=C(c2cccc(C)c2)c2ccc(OCCCc3ccccc3)cc2/C1=[N+](/C)[O-],300
9,CCOC(=O)C1=C(c2ccccc2)c2ccc(OC)cc2/C1=N\OC,1500

# Further lines, results first:
row,EC50 [nM],Compound
1,140,COC(=O)C1=C(c2ccccc2)c2ccc(OCCN3CCOCC3)cc2/C1=[N+](/C)[O-]
2,> 10000,CCOC(=O)C1=C(c2ccccc2)c2ccc(OC)cc2/C1=N\O
3,> 1000,CCOC(=O)C1=C(c2ncc[nH]2)c2ccc(OCCCc3ccccc3)cc2/C1=[N+](/C)[O-]
4,> 10000,CCOC(=O)C1=C(c2ccccc2)c2ccc(OC)cc2/C1=[N+](\[O-])CC
5,> 10000,CCOC(=O)C1=C(c2ccccc2)c2ccc(OC)cc2/C1=[N+](\[O-])Cc1ccccc1
6,70,CCOC(=O)C1=C(c2ccc(Cl)cc2)c2ccc(OCCCc3ccccc3)cc2/C1=[N+](/C)[O-]
7,80,CCOC(=O)C1=C(CC)c2ccc(OCCCc3ccccc3)cc2/C1=[N+](/C)[O-]
